Values after ≈ are worked out from the molar mass of the structure shown. Read-outs that look alike come from different tables or passages of the source.
What was measured:
Staph. aureus Smith [1] = test: In vivo activity (oral, iv; ED50) against Staph. aureus Smith in mice
Method: Representative examples of compounds of Formula I were tested for the oral efficacy using S. aureus Smith in mice.

E. coli = test: Range of MIC for E. coli strains; conditions: for MIC: Escherichia coli
Staph. = test: Range of MIC for Staph. strains, including MRSA; conditions: for MIC: Staphylococcus aureus, MRSA
Staph. aureus Smith [2] = test: In vitro activity (MIC) against Staph. aureus Smith; format: cell-based; conditions: Staphylococcus aureus; Table 8
S. pneumoniae* GC 4465 = test: MIC, broth microdilution
E. faecalis GC 4555 = test: MIC, broth microdilution
S. cholerasius GC 1355 = test: MIC, broth microdilution
E. coli GC 2236 = test: MIC, broth microdilution
S. aureus GC 4536 = test: MIC, broth microdilution
E. coli GC 4560 = test: MIC, broth microdilution
S. pyogenes GC 4563 = test: MIC, broth microdilution
S. epidermidis GC 4935 = test: MIC, broth microdilution
E. coli GC 2272 = test: MIC, broth microdilution
E. coli GC 4559 = test: MIC, broth microdilution
Method: (§1) Antimicrobial susceptibility testing. The in vitro activities of the antibiotics are determined by the broth microdilution method as recommended by the National Committee for Clinical Laboratory Standards (NCCLS) (1). Mueller-Hinton II broth (MHBII)(BBL Cockeysville, Md.) is the medium employed in the testing procedures. Microtiter plates containing serial dilutions of each antimicrobial agent are inoculated with each organism to yield the appropriate density (10^5 CFU/ml) in a 100 μl final volume. The plates are incubated for 18-22 hours at 35° C. in ambient air.
Representative compounds were first incubated in mouse serum for an hour prior to the in vitro testing against a panel of selected gram-positive and gram-negative bacteria strains. All compounds were also pre-incubated in water for an hour prior to testing as control. Representative compounds of Formula I were incubated in human serum prior to MIC determination.

E. coli GC 3226 = test: MIC, broth microdilution
Salmonella spp. GC 566 = test: MIC, broth microdilution
Method: as §1
(§2) Presented in Tables I-XIII are representative compounds of Formula I which were evaluated against a panel of 40 selected gram-positive and gram-negative bacteria strains by pre-incubation in water, mouse serum or human serum. Representative compounds were first incubated in mouse serum for an hour prior to the in vitro testing against a panel of selected gram-positive and gram-negative bacteria strains. All compounds were also pre-incubated in water for an hour prior to testing as control. Representative compounds of Formula I were incubated in human serum prior to MIC determination.

S. aureus GC 1079 = test: MIC, broth microdilution
E. faecium GC 4556 = test: MIC, broth microdilution
c. albicans GC 3066 = test: MIC, broth microdilution
E. coli GC 6465 = test: MIC, broth microdilution
E. coli GC 2203 = test: MIC, broth microdilution
Method: Antimicrobial susceptibility testing. The in vitro activities of the antibiotics are determined by the broth microdilution method as recommended by the National Committee for Clinical Laboratory Standards (NCCLS) (1). Mueller-Hinton II broth (MHBII)(BBL Cockeysville, Md.) is the medium employed in the testing procedures. Microtiter plates containing serial dilutions of each antimicrobial agent are inoculated with each organism to yield the appropriate density (10^5 CFU/ml) in a 100 μl final volume. The plates are incubated for 18-22 hours at 35° C. in ambient air. […] Standard Pharmacological Test Procedures
as §2

E. coli GC 2270 = test: MIC, broth microdilution
S. aureus GC 1131 = test: MIC, broth microdilution
E. faecium GC 2243 = test: MIC, broth microdilution
Method: as §1
(§3) Representative compounds were first incubated in mouse serum for an hour prior to the in vitro testing against a panel of selected gram-positive and gram-negative bacteria strains. All compounds were also pre-incubated in water for an hour prior to testing as control.

E. coli GC 2271 = test: MIC, broth microdilution
S. aureus GC 6467 = test: MIC, broth microdilution
E. coli GC 2234 = test: MIC, broth microdilution
S. agalactiae GC 4564 = test: MIC, broth microdilution
E. coli GC 2235 = test: MIC, broth microdilution
P. aeruginosa GC 2214 = test: MIC, broth microdilution
S. aureus GC 2216 = test: MIC, broth microdilution
Salmonella spp. GC 235 = test: MIC, broth microdilution
Method: as §1, §3

E. coli GC 2232 = test: MIC, broth microdilution
S. aureus GC 6466 = test: MIC, broth microdilution
S. pneumoniae+ GC 4465 = test: MIC, broth microdilution
E. faecalis GC 2242 = test: MIC, broth microdilution
E. coli GC 2231 = test: MIC, broth microdilution
E. faecalis GC 2265 = test: MIC, broth microdilution
Method: as §1, §3

E. coli GC 2233 = test: MIC, broth microdilution
E. faecalis GC 2267 = test: MIC, broth microdilution
S. aureus GC 6469 = test: MIC, broth microdilution
E. coli GC 1073 = test: MIC, broth microdilution
S. aureus GC 6335 = test: MIC, broth microdilution
S. typhimurium GC 2172 = test: MIC, broth microdilution

CCCN(CC(=O)Nc1cc(N(C)C)c2c(c1O)C(=O)C1=C(O)[C@]3(O)C(=O)C(C(N)=O)=C(O)[C@@H](N(C)C)C3CC1C2)C(=O)OCOC(=O)C1CCCCC1 (stereo partly drawn) [Example 33, ({[(2-{[(7S,10aS)-9-(aminocarbonyl)-4,7-bis(dimethylamino)-1,8,10a,11-tetrahydroxy-10,12-dioxo-5,5a,6,6a,7,10,10a,12-octahydrotetracen-2-yl]amino}-2-oxoethyl)(propyl)amino]carbonyl}oxy)methyl cyclohexanecarboxylate]
ED50 (Staph. aureus Smith [1]; Staphylococcus aureus, in Mus musculus, iv, read-out: ED50 SIV (Staph aureus Smith)): 0.48 mg/kg
ED50 (Staph. aureus Smith [1]; Staphylococcus aureus, in Mus musculus, po, read-out: ED50 SOD (Staph aureus Smith)): 4.91 mg/kg
ED50 (Staph. aureus Smith [1]; Staphylococcus aureus, in Mus musculus, po, read-out: ED50 Staph Smith SOD): 4.91 mg/kg
ED50 (Staph. aureus Smith [1]; iv, read-out: ED50 Staph Smith SIV): 0.45 mg/kg
MIC (E. coli; 20 h, read-out: Range of MIC, E. coli (Mouse Serum)): 0.5 to 2 µg/mL (≈ 0.662 to 2.65 µM)
MIC (E. coli; read-out: Range of MIC, E. coli (mouse serum)): 0.5 to 2 µg/mL (≈ 0.662 to 2.65 µM)
MIC (Staph.; read-out: Range of MIC, Staph (Mouse Serum)): 0.12 to 2 µg/mL (≈ 0.159 to 2.65 µM)
MIC (Staph.; read-out: Range of MIC, Staph (Water)): 0.12 to 2 µg/mL (≈ 0.159 to 2.65 µM)
MIC (Staph.; read-out: Range of MIC, Staph. (mouse serum)): 0.12 to 2 µg/mL (≈ 0.159 to 2.65 µM)
MIC (Staph.; read-out: Range of MIC, Staph. (water)): 0.12 to 2 µg/mL (≈ 0.159 to 2.65 µM)
MIC (Staph. aureus Smith [2]): 0.12 µg/mL (≈ 0.159 µM)

CCCN(CC(=O)Nc1cc(N(C)C)c2c(c1O)C(=O)C1=C(O)[C@@]3(O)C(=O)C(C(N)=O)=C(O)[C@@H](N(C)C)C3CC1C2)C(=O)OCc1oc(=O)oc1C (stereo partly drawn) [Example 108, (5-methyl-2-oxo-1,3-dioxol-4-yl)methyl 2-{[(7S,10aR)-9-(aminocarbonyl)-4,7-bis(dimethylamino)-1,8,10a,11-tetrahydroxy-10,12-dioxo-5,5a,6,6a,7,10,10a,12-octahydrotetracen-2-yl]amino}-2-oxoethyl(propyl)carbamate]
MIC (S. pneumoniae* GC 4465; pre-incubation in mouse serum): 0.12 UG/ML
MIC (S. pneumoniae* GC 4465; pre-incubation in water): 0.12 UG/ML
MIC (E. faecalis GC 4555; pre-incubation in mouse serum): 0.50 UG/ML
MIC (E. faecalis GC 4555; pre-incubation in water): 0.50 UG/ML
MIC (S. cholerasius GC 1355; pre-incubation in mouse serum): 32 UG/ML
MIC (S. cholerasius GC 1355; pre-incubation in water): 64 UG/ML
MIC (E. coli GC 2236; pre-incubation in mouse serum): 0.50 UG/ML
MIC (E. coli GC 2236; pre-incubation in water): 2 UG/ML
MIC (S. aureus GC 4536; pre-incubation in mouse serum): 0.50 UG/ML
MIC (S. aureus GC 4536; pre-incubation in water): 1 UG/ML
MIC (E. coli GC 4560; pre-incubation in mouse serum): 0.12 UG/ML
MIC (E. coli GC 4560; pre-incubation in water): 0.25 UG/ML
MIC (S. pyogenes GC 4563; pre-incubation in mouse serum): 0.12 UG/ML
MIC (S. pyogenes GC 4563; pre-incubation in water): 0.12 UG/ML
MIC (S. epidermidis GC 4935; pre-incubation in mouse serum): 1 UG/ML
MIC (S. epidermidis GC 4935; pre-incubation in water): 2 UG/ML
MIC (E. coli GC 2272; pre-incubation in mouse serum): 0.25 UG/ML
MIC (E. coli GC 2272; pre-incubation in water): 0.50 UG/ML
MIC (E. coli GC 4559; pre-incubation in mouse serum): 0.50 UG/ML
MIC (E. coli GC 4559; pre-incubation in water): 1 UG/ML
ED50 Staph Smith SIV (Staph. aureus Smith [1]; single intravenous dose (SIV)): >2 mg/kg
ED50 Staph Smith SOD (Staph. aureus Smith [1]; single oral dose (SOD)): >32 mg/kg
MIC (E. coli GC 3226; pre-incubation in mouse serum): 0.50 UG/ML
MIC (E. coli GC 3226; pre-incubation in water): 1 UG/ML
MIC (Salmonella spp. GC 566; pre-incubation in mouse serum): 1 UG/ML
MIC (Salmonella spp. GC 566; pre-incubation in water): 8 UG/ML
MIC (S. aureus GC 1079; pre-incubation in mouse serum): 2 UG/ML
MIC (S. aureus GC 1079; pre-incubation in water): 4 UG/ML
MIC (E. faecium GC 4556; pre-incubation in mouse serum): 0.50 UG/ML
MIC (E. faecium GC 4556; pre-incubation in water): 1 UG/ML
MIC (c. albicans GC 3066; pre-incubation in mouse serum): >64 UG/ML
MIC (c. albicans GC 3066; pre-incubation in water): >64 UG/ML
MIC (E. coli GC 6465; pre-incubation in mouse serum): 8 UG/ML
MIC (E. coli GC 6465; pre-incubation in water): 64 UG/ML
MIC (E. coli GC 2203; pre-incubation in mouse serum): 0.50 UG/ML
MIC (E. coli GC 2203; pre-incubation in water): 1 UG/ML
Range of MIC, E. coli (Mouse Serum) (E. coli; Mouse Serum, Table 1): 0.5 to 2 µg/mL
Range of MIC, E. coli (Water) (E. coli; Water, Table 1): 0.5 to 4 µg/mL
MIC (E. coli GC 2270; pre-incubation in mouse serum): 0.50 UG/ML
MIC (E. coli GC 2270; pre-incubation in water): 1 UG/ML
Range of MIC, Staph (Mouse Serum) (Staph.; Mouse Serum, including MRSA, Table 1): 0.25 to 2 µg/mL
Range of MIC, Staph (Water) (Staph.; Water, including MRSA, Table 1): 1 to 8 µg/mL
MIC (S. aureus GC 1131; pre-incubation in mouse serum): 0.25 UG/ML
MIC (S. aureus GC 1131; pre-incubation in water): 0.50 UG/ML
MIC (E. faecium GC 2243; pre-incubation in mouse serum): 0.50 UG/ML
MIC (E. faecium GC 2243; pre-incubation in water): 0.50 UG/ML
MIC (E. coli GC 2271; pre-incubation in mouse serum): 0.50 UG/ML
MIC (E. coli GC 2271; pre-incubation in water): 0.50 UG/ML
MIC (S. aureus GC 6467; pre-incubation in mouse serum): 2 UG/ML
MIC (S. aureus GC 6467; pre-incubation in water): 8 UG/ML
MIC (E. coli GC 2234; pre-incubation in mouse serum): 0.50 UG/ML
MIC (E. coli GC 2234; pre-incubation in water): 2 UG/ML
MIC (S. agalactiae GC 4564; pre-incubation in mouse serum): 0.12 UG/ML
MIC (S. agalactiae GC 4564; pre-incubation in water): 0.12 UG/ML
MIC (E. coli GC 2235; pre-incubation in mouse serum): 0.50 UG/ML
MIC (E. coli GC 2235; pre-incubation in water): 1 UG/ML
MIC (P. aeruginosa GC 2214; pre-incubation in mouse serum): 16 UG/ML
MIC (P. aeruginosa GC 2214; pre-incubation in water): 32 UG/ML
MIC (S. aureus GC 2216; pre-incubation in mouse serum): 0.50 UG/ML
MIC (S. aureus GC 2216; pre-incubation in water): 1 UG/ML
MIC (Salmonella spp. GC 235; pre-incubation in mouse serum): 1 UG/ML
MIC (Salmonella spp. GC 235; pre-incubation in water): 4 UG/ML
MIC (E. coli GC 2232; pre-incubation in mouse serum): 1 UG/ML
MIC (E. coli GC 2232; pre-incubation in water): 2 UG/ML
MIC (S. aureus GC 6466; pre-incubation in mouse serum): 0.50 UG/ML
MIC (S. aureus GC 6466; pre-incubation in water): 1 UG/ML
MIC (S. pneumoniae+ GC 4465; pre-incubation in mouse serum): 1 UG/ML
MIC (S. pneumoniae+ GC 4465; pre-incubation in water): 2 UG/ML
MIC (E. faecalis GC 2242; pre-incubation in mouse serum): 0.50 UG/ML
MIC (E. faecalis GC 2242; pre-incubation in water): 1 UG/ML
MIC (E. coli GC 2231; pre-incubation in mouse serum): 2 UG/ML
MIC (E. coli GC 2231; pre-incubation in water): 4 UG/ML
MIC (E. faecalis GC 2265; pre-incubation in mouse serum): 1 UG/ML
MIC (E. faecalis GC 2265; pre-incubation in water): 2 UG/ML
MIC (E. coli GC 2233; pre-incubation in mouse serum): 0.50 UG/ML
MIC (E. coli GC 2233; pre-incubation in water): 1 UG/ML
MIC (E. faecalis GC 2267; pre-incubation in mouse serum): 1 UG/ML
MIC (E. faecalis GC 2267; pre-incubation in water): 2 UG/ML
MIC (S. aureus GC 6469; pre-incubation in mouse serum): 0.25 UG/ML
MIC (S. aureus GC 6469; pre-incubation in water): 1 UG/ML
MIC (E. coli GC 1073; pre-incubation in mouse serum): 0.50 UG/ML
MIC (E. coli GC 1073; pre-incubation in water): 2 UG/ML
MIC (S. aureus GC 6335; pre-incubation in mouse serum): 1 UG/ML
MIC (S. aureus GC 6335; pre-incubation in water): 2 UG/ML
MIC (S. typhimurium GC 2172; pre-incubation in mouse serum): 4 UG/ML
MIC (S. typhimurium GC 2172; pre-incubation in water): 32 UG/ML
